# Target: SARS-CoV-2 3CL-protease (Severe acute respiratory syndrome coronavirus 2, UniProt P0DTD1)
# Test: SARS-CoV-2 3C-Like (3CL) Protease Fluorescence Assay (FRET)
# Assay type: biochemical
# Conditions: SARS-CoV-2 3CL-protease 10 nM, 30 min preincubation at RT, substrate 40 μM
row,Compound,IC50
1,CC(C)C[C@@H](C(=O)N1C[C@]2(C[C@H]1C#N)C(=O)Nc1ccccc12)N(C)C(=O)NCc1ccccc1 [Example 433],< 100 nM
2,[2H]C([2H])([2H])N(C(=O)c1nc(-c2ccccc2)c[nH]1)[C@@H](CC(C)(C)C)C(=O)N1C[C@]2(C[C@H]1C#N)C(=O)Nc1ccccc12 [Example 376],< 100 nM
3,Cc1cccc(C)c1NC(=O)N[C@@H](CC(C)(C)C)C(=O)N1C[C@]2(C[C@H]1C#N)C(=O)Nc1ccccc12 [Example 438],100 to 1000 nM
4,CN(C(=O)CCN1CCCC1)[C@@H](CC(C)(C)F)C(=O)N1C[C@]2(C[C@H]1C#N)C(=O)Nc1ccccc12 [Example 541],< 100 nM
5,CC(C)C[C@@H](C(=O)N1C[C@]2(C[C@H]1C#N)C(=O)Nc1ccccc12)N(C)C(=O)c1ccn[nH]1 [Example 202],100 to 1000 nM
6,CN(C(=O)CCNc1nccs1)[C@@H](CC(C)(C)F)C(=O)N1C[C@]2(C[C@H]1C#N)C(=O)Nc1ccccc12 [Example 547],< 100 nM
7,[2H]C([2H])([2H])N(C(=O)[C@@H](O)c1ccccc1)[C@@H](CC(C)(C)C)C(=O)N1C[C@]2(C[C@H]1C#N)C(=O)Nc1ccccc12 [Example 427],< 100 nM
8,"CC(C)C[C@@H](C(=O)N1C[C@]2(C[C@H]1C#N)C(=O)Nc1ccc(Br)cc12)N(C)C(=O)OCc1ccccc1 [Example 517, benzyl ((S)-1-((3R,5′S)-5-bromo-5′-cyano-2-oxospiro[indoline-3,3′-pyrrolidin]-1′-yl)-4-methyl-1-oxopentan-2-yl)(methyl)carbamate]",< 100 nM
9,COc1ccccc1CN(C(=O)C(F)(F)F)[C@@H](CC(C)C)C(=O)N1C[C@]2(C[C@H]1C#N)C(=O)Nc1ccccc12 [Example 431],> 1000 nM
10,CC(C)C[C@H](NC(=O)c1cc2c(F)cccc2[nH]1)C(=O)N1C[C@]2(C[C@H]1C#N)C(=O)Nc1cc(Cl)ccc12 [Example 531],< 100 nM
11,CN(C(=O)[C@H](O)c1ccccc1Cl)[C@@H](CC1CC1)C(=O)N1C[C@]2(C[C@H]1C#N)C(=O)Nc1ccccc12 [Example 426],< 100 nM
12,CN(C(=O)[C@H](O)C(C)(C)C)[C@@H](CC1CC1)C(=O)N1C[C@]2(C[C@H]1C#N)C(=O)Nc1ccccc12 [Example 417],< 100 nM
13,"CC(C)C[C@@H](C(=O)N1C[C@]2(C[C@H]1C#N)C(=O)Nc1ccc(NC(=O)C3(F)CC3)cc12)N(C)C(=O)c1cc2c(F)cc(F)cc2[nH]1 [Example 504, N—((S)-1-((3R,5′S)-5′-cyano-5-(1-fluorocyclopropane-1-carboxamido)-2-oxospiro[indoline-3,3′-pyrrolidin]-1′-yl)-4-methyl-1-oxopentan-2-yl)-4,6-difluoro-N-methyl-1H-indole-2-carboxamide]",< 100 nM
14,CN(C(=O)c1cc2c(F)cc(F)cc2[nH]1)[C@@H](CC(C)(C)O)C(=O)N1C[C@]2(C[C@H]1C#N)C(=O)Nc1ccccc12 [Example 443],100 to 1000 nM
15,[2H]C([2H])([2H])N(C(=O)c1ccc2ncc(C(F)(F)F)cc2c1)[C@@H](CC(C)(C)C)C(=O)N1C[C@]2(C[C@H]1C#N)C(=O)Nc1ccccc12 [Example 381],< 100 nM
16,Cc1cc2cc(C(=O)N[C@@H](CC(C)(C)C)C(=O)N3C[C@]4(C[C@H]3C#N)C(=O)Nc3ccccc34)cc(Cl)c2nc1C [Example 147],< 100 nM
17,CC(C)C[C@@H](C(=O)N1C[C@]2(C[C@H]1C#N)C(=O)Nc1ccccc12)N(C)C(=O)c1ccc2ncc(F)cc2c1 [Example 235],< 100 nM
18,[2H]C([2H])([2H])N(C(=O)c1cc2c(F)cc(F)cc2[nH]1)[C@@H](CC(C)(C)F)C(=O)N1C[C@]2(C[C@H]1C#N)C(=O)Nc1ccc(Cl)cc12 [Example 454],< 100 nM
19,[2H]C([2H])([2H])N(C(=O)c1cn(CC(F)(F)F)nn1)[C@@H](CC(C)(C)C)C(=O)N1C[C@]2(C[C@H]1C#N)C(=O)Nc1ccccc12 [Example 380],< 100 nM
20,CCCC[C@@H](C(=O)N1C[C@]2(C[C@H]1C#N)C(=O)Nc1ccccc12)N(C)C(=O)c1cnn(C(C)(C)C)c1 [Example 408],< 100 nM
21,CC(C)C[C@@H](C(=O)N1C[C@]2(C[C@H]1C#N)C(=O)Nc1ccc(-c3ccn(C(F)F)n3)cc12)N(C)C(=O)c1cc2c(F)cc(F)cc2[nH]1 [Example 514],< 100 nM
22,CC(C)C[C@@H](C(=O)N1C[C@]2(C[C@H]1C#N)C(=O)Nc1ccccc12)N(C)C(=O)c1cn(-c2ccc(F)cc2)nn1 [Example 283],< 100 nM
23,CC(C)C[C@@H](C(=O)N1C[C@]2(C[C@H]1C#N)C(=O)Nc1ccccc12)N(C)C(=O)c1ccc(C#N)c(Cl)c1 [Example 165],100 to 1000 nM
24,"CC(C)C[C@H](NC(=O)O[C@@H](c1ccccc1)C(F)(F)F)C(=O)N1C[C@]2(C[C@H]1C#N)C(=O)Nc1ccc(F)cc12 [Example 527, (S)-2,2,2-trifluoro-1-phenylethyl ((S)-1-((3R,5′S)-5′-cyano-5-fluoro-2-oxospiro[indoline-3,3′-pyrrolidin]-1′-yl)-4-methyl-1-oxopentan-2-yl)carbamate]",< 100 nM
25,CN(C(=O)c1cnn(-c2ccc(F)cc2)c1)[C@@H](CC1CC1)C(=O)N1C[C@]2(C[C@H]1C#N)C(=O)Nc1ccccc12 [Example 405],< 100 nM

row,Compound,IC50
1,CC(C)C[C@@H](C(=O)N1C[C@]2(C[C@H]1C#N)C(=O)Nc1ccccc12)N(C)C(=O)CCNC(=O)OC(C)(C)C [Example 366],< 100 nM
2,CC(C)C[C@@H](C(=O)N1C[C@]2(C[C@H]1C#N)C(=O)Nc1ccccc12)N(C)C(=O)c1ccc2c(Br)cccc2n1 [Example 231],100 to 1000 nM
3,"N#C[C@@H]1C[C@@]2(CN1C(=O)[C@H](CC1CC1)NC(=O)OCc1c(F)cccc1F)C(=O)Nc1ccc(Cl)cc12 [Example 492, 2,6-difluorobenzyl ((S)-1-((3R,5′S)-5-chloro-5′-cyano-2-oxospiro[indoline-3,3′-pyrrolidin]-1′-yl)-3-cyclopropyl-1-oxopropan-2-yl)carbamate]",< 100 nM
4,CC(C)C[C@@H](C(=O)N1C[C@]2(C[C@H]1C#N)C(=O)Nc1ccccc12)N(C)C(=O)c1cc2sccc2[nH]1 [Example 209],< 100 nM
5,CC(C)C[C@@H](C(=O)N1C[C@]2(C[C@H]1C#N)C(=O)Nc1ccccc12)N(C)C(=O)c1ccc(F)c(F)c1 [Example 178],< 100 nM
6,COc1ccnc(C(=O)N(C)[C@@H](CC(C)C)C(=O)N2C[C@]3(C[C@H]2C#N)C(=O)Nc2ccccc23)c1 [Example 192],100 to 1000 nM
7,CC(C)C[C@@H](C(=O)N1C[C@]2(C[C@H]1C#N)C(=O)Nc1ccccc12)N(C)C(=O)c1c(F)ccc2ccncc12 [Example 299],< 100 nM
8,CC(C)(C)C[C@H](NC(=O)c1cc(OC(F)(F)F)c2ncccc2c1)C(=O)N1C[C@]2(C[C@H]1C#N)C(=O)Nc1ccccc12 [Example 137],< 100 nM
9,CC(C)C[C@@H](C(=O)N1C[C@]2(C[C@H]1C#N)C(=O)Nc1ccccc12)N(C)C(=O)c1cn(C)cn1 [Example 201],100 to 1000 nM
10,[2H]C([2H])([2H])N(C(=O)c1cnn(CC(F)(F)F)c1)[C@@H](CC1CC1)C(=O)N1C[C@]2(C[C@H]1C#N)C(=O)Nc1ccccc12 [Example 395],< 100 nM
11,CC(C)C[C@@H](C(=O)N1C[C@]2(C[C@H]1C#N)C(=O)Nc1ccccc12)N(C)C(=O)c1cc(F)c2nc(C3CC3)cn2c1 [Example 318],< 100 nM
12,CC(C)C[C@@H](C(=O)N1C[C@]2(C[C@H]1C#N)C(=O)Nc1ncccc12)N(C)C(=O)c1cc2c(F)cc(F)c(F)c2[nH]1 [Example 550],< 100 nM
13,CC(C)C[C@@H](C(=O)N1C[C@]2(C[C@H]1C#N)C(=O)Nc1ccccc12)N(C)C(=O)c1cccc(-c2ccc(C#N)cc2)c1 [Example 265],100 to 1000 nM
14,[2H]C([2H])([2H])N(C(=O)c1cn(C2CC2)nn1)[C@@H](CC(C)(C)C)C(=O)N1C[C@]2(C[C@H]1C#N)C(=O)Nc1ccccc12 [Example 378],< 100 nM
15,CC(C)(C)C[C@H](NC(=O)Nc1ccccc1)C(=O)N1C[C@]2(C[C@H]1C#N)C(=O)Nc1ccccc12 [Example 435],100 to 1000 nM
16,COc1cccc(CN(C(=O)C(F)(F)F)[C@@H](CC(C)C)C(=O)N2C[C@]3(C[C@H]2C#N)C(=O)Nc2ccccc23)c1 [Example 430],> 1000 nM
17,CC(C)C[C@@H](C(=O)N1C[C@]2(C[C@H]1C#N)C(=O)Nc1ccccc12)N(C)C(=O)c1cc2cccc(C(F)(F)F)c2[nH]1 [Example 336],< 100 nM
18,CC(C)C[C@@H](C(=O)N1C[C@]2(C[C@H]1C#N)C(=O)Nc1ccccc12)N(C)C(=O)N1Cc2cn[nH]c2C1 [Example 434],100 to 1000 nM
19,"CC(C)C[C@@H](C(=O)N1C[C@]2(C[C@H]1C#N)C(=O)Nc1ccc(-n3cc(C4CC4)nn3)cc12)N(C)C(=O)c1cc2c(F)cc(F)cc2[nH]1 [Example 505, N—((S)-1-((3R,5′S)-5′-cyano-5-(4-cyclopropyl-1H-1,2,3-triazol-1-yl)-2-oxospiro[indoline-3,3′-pyrrolidin]-1′-yl)-4-methyl-1-oxopentan-2-yl)-4,6-difluoro-N-methyl-1H-indole-2-carboxamide]",< 100 nM
20,CN(C(=O)Cc1cnccn1)[C@@H](CC(C)(C)F)C(=O)N1C[C@]2(C[C@H]1C#N)C(=O)Nc1ccc(Cl)cc12 [Example 484],< 100 nM
21,N#C[C@@H]1C[C@@]2(CN1C(=O)[C@H](CC1CC1)NC(=O)c1cc3c(F)cc(F)cc3[nH]1)C(=O)Nc1ccc(Cl)cc12 [Example 453],< 100 nM
22,CN(C(=O)c1cc2c(F)cc(F)c(F)c2[nH]1)[C@@H](CCC(C)(C)C)C(=O)N1C[C@]2(C[C@H]1C#N)C(=O)Nc1ccccc12 [Example 412],< 100 nM
23,CC(C)(C)C[C@H](NC(=O)c1cn(-c2ccc(Cl)cc2)nn1)C(=O)N1C[C@]2(C[C@H]1C#N)C(=O)Nc1ccccc12 [Example 140],100 to 1000 nM
24,CC(C)C[C@@H](C(=O)N1C[C@]2(C[C@H]1C#N)C(=O)Nc1ccccc12)N(C)C(=O)c1cc(-c2ccccc2)ccc1Cl [Example 262],100 to 1000 nM
25,[2H]C([2H])([2H])N(C(=O)c1cn(-c2ccc(Cl)cc2)nn1)[C@@H](CC(C)(C)C)C(=O)N1C[C@]2(C[C@H]1C#N)C(=O)Nc1ccccc12 [Example 377],< 100 nM

# From patent US12540141B2, “Spiropyrrolidine derived antiviral agents” (priority 2020, dated 2026)
